The values that follow come from PMC5319980, “Mutant Analysis Reveals Allosteric Regulation of ClpB Disaggregase” (Frontiers in Molecular Biosciences, 2017).

In test [1] the target is T1, ClpB (Escherichia coli, UniProt P63284).
T1 construct: ClpB wild type
In words: biochemical. The settings on record: competition with 1.25 uM mantADP; read-out: Knuc (WT). On the set-up: competition titration of nucleotide against preformed ClpB-mantADP complex, mantADP fluorescence. Here is the method:
with F: observed fluorescence; F0: starting fluorescence without nucleotide; F1: maximum fluorescence observed; [ATP]: concentration of ADP/ATPγS (μM); Ki,app: apparent dissociation constant. with Ki,app: apparent dissociation constant; Ki: dissociation constant; [mantADP]: mantADP concentration (μM); Kd (mantADP): dissociation constant of mantADP. […] ClpB WT and mutants were incubated for 5 min at 25°C in presence of 2 mM ATPγS. Crosslinking reactions were started by addition of glutaraldehyde and proceeded for 2 and 10 min. Crosslinking products were separated by SDS-PAGE, followed by Sypro-Ruby staining. Supplementary Figure 2 Nucleotide binding properties of ClpB wild type. (A)1,5 µM mantADP was incubated with increasing concentrations of ClpB wild type and derivatives and the increase in mantADP fluorescence was determined. The fluorescence intensity of mantADP in absence of ClpB proteins was set at 1. Determined dissociation constants (Kd) are given. (B) Increasing nucleotide concentrations (ADP, ATPγS) were added to a preformed ClpB-mantADP complex (1,25 µM MANTADP, 1,25 µM ClpB WT or derivatives). Determined dissociation constants (Kd) are given.

The target in test [2] is ClpB (Escherichia coli, UniProt P63284, A328V). In words: equilibrium fluorescence titration of mantADP with ClpB. It is filed as binding.
Chain of ClpB (Escherichia coli, UniProt P63284, A328V) (P63284 whole entry A328V): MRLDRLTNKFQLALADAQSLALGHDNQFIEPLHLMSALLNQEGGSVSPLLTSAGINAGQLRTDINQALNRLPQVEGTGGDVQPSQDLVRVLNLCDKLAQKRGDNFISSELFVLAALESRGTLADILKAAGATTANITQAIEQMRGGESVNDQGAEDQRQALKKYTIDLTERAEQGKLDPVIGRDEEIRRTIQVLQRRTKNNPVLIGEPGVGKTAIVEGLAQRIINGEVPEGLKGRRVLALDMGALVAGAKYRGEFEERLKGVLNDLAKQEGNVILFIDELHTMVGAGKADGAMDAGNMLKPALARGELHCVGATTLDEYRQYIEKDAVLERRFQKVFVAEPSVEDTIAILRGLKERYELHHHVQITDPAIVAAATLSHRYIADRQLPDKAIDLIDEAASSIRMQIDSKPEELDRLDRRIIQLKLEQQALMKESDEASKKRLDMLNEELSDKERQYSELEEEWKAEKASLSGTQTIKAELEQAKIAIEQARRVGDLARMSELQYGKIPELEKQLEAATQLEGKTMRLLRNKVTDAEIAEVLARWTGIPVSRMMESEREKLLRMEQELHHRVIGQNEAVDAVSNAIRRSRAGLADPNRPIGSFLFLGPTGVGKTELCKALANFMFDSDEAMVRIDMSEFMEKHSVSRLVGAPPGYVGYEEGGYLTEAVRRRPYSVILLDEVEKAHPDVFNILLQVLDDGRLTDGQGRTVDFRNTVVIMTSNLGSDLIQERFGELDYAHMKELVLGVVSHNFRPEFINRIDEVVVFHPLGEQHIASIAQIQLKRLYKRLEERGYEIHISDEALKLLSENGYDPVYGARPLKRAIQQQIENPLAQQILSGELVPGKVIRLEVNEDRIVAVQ
Test [3] addresses T1, ClpB. The description is as above. Type of test: binding.
The target of test [4] is ClpB (Escherichia coli, UniProt P63284, K476C). The description is as above. Type of test: binding.
Chain of ClpB (Escherichia coli, UniProt P63284, K476C) (P63284 whole entry K476C, looked up): as the sequence (P63284 whole entry A328V) above, with V328A, K476C counted along it
For test [5], the target named is T1, ClpB. In words: NADH-coupled ATPase assay with purified ClpB, without and with casein. It is filed as biochemical.

T1 sequence (P63284 whole entry): as the sequence (P63284 whole entry A328V) above, with V328A counted along it

For `Nc1ncnc2c1ncn2[C@@H]1O[C@H](COP(=O)(O)OP(=O)(O)O)[C@@H](O)[C@H]1O` [ADP], the Kd on ClpB [1] was found to be 7.6 µM.
Regarding mantADP, the Kd at ClpB [2] amounted to 0.51 µM; on ClpB [3], 0.23 µM; at ClpB [4], 0.25 µM.
Consider `Nc1ncnc2c1ncn2[C@@H]1O[C@H](CO[P@](=O)(O)O[P@](=O)(O)O[P@@](=O)(O)S)[C@@H](O)[C@H]1O` [ATPγS], for which the Kd at ClpB [1] was found to be 8.1 µM.
In the case of `Nc1ncnc2c1ncn2[C@@H]1O[C@H](COP(=O)(O)OP(=O)(O)OP(=O)(O)O)[C@@H](O)[C@H]1O` [ATP], the “NADH-coupled ATPase assay with purified ClpB, without and with casein” value on ClpB [5] was “ATPase activities of ClpB wild type (WT) and indicated ClpB mutants were determined in absence (−) and presence (+)”.
